Three molecules from patent US20230255935A1, “ANTI-VIRAL COMPOUNDS AND METHODS FOR SCREENING SAME AND TREATING VIRAL INFECTIONS” (priority 2020, published 2023) can be followed below.

Like-named read-outs stand apart in the source and are kept apart here.

What is called EC50 is the midpoint of the concentration-response curve.

Series [1] in a line: in vitro. The settings on record: African green monkey.
Series [2] has as its system MERS-CoV. In words: microbe, parasite or virus in culture. The conditions noted are these: Middle East respiratory syndrome-related coronavirus, Vero C1008, 48 h.
The subject of series [3] is MERS-CoV. Type of series: cell-based.
For series [4], the system named is MERS-CoV. Type of series: cell-based. The source holds these as a separate data set.
In series [5] the test system is MERS-CoV N protein. Type of series: cell-based.
In series [6] the test system is MHV. Type of series: cell-based, mouse hepatitis virus (MHV).
Series [7] concerns PEDV. Type of series: cell-based, porcine epidemic diarrhea virus (PEDV).
In series [8] the test system is MERS-CoV. Type of series: cell-based. The source holds these as a separate data set.
Series [9] deals with SARS-CoV2. Type of series: cell-based.
In series [10] the target is T1, MERS-CoV N-NTD (Middle East respiratory syndrome-related coronavirus, UniProt K9N4V7).
For series [11], the target named is T1, MERS-CoV N-NTD. The source holds these as a separate data set.
In series [12] the target is T2, full-length MERS-CoV N protein (Middle East respiratory syndrome-related coronavirus, UniProt K9N4V7).
Series [13] addresses T2, full-length MERS-CoV N protein. The source holds these as a separate data set.
For series [14] the target is unchanged. This is another data set of the same source.
The subject of series [15] is MERS-CoV.
In series [16] the test system is SARS-CoV2.
For series [17], the system named is MHV. In words: MHV-infected mice treated with PSX-01 (clinical score, body weight, liver histology). The settings on record: PSX-01 10 mM intraperitoneal.

For `CCc1cccc2c3c([nH]c12)C(CC)(CC(=O)O)OCC3` (centres unmarked) [Compound P2, etodolac], the CC50 in series [1] was found to be 570 µM. Besides, the half-maximal effective concentration (EC50) in series [2] is > 100 µM.
For the molecule `O=C(OCc1ccccc1)N1c2ccccc2CC1CO` (centres unmarked) [Compound P1, benzyl 2-(hydroxymethyl)-1-indolinecarboxylate], the CC50 in series [1] was found to be 460 µM. Moreover, the concentration giving a half-maximal response (EC50) in [2] is > 100 µM.
As for `CN(C)Cc1c[nH]c2ccc(OCc3ccccc3)cc12` [PSX-01, 5-benzyloxygramine], in [3], the “extracellular viral titer (plaque assay)” value is reported as “affected the viral titer” and the “viral production (plaque assay)” value is recorded as “halted”. Moreover, in [4], the “suppression of viral RNA replication” value stood at 40% and the “viral RNA replication” value is “halted”. Moreover, in [5], the N protein expression entry is “suppressed N protein expression in most cells” and the “intracellular N protein distribution” value is given as “condensation of the intracellular N protein fluorescence signal”. In series [6], the cytopathic effect entry is “significantly reduce the cytopathic effect”. Further, in [7], the cytopathic effect result is “significantly reduce the cytopathic effect”. Also, the cytopathic effect entry in series [8] is listed as “significantly reduce the cytopathic effect”. In addition, the “viral titer (plaque assay)” value in series [9] is recorded as “affected the viral titer”. Also, in series [10], the “binding to the N protein relative to the other leads” value was “bound more tightly to the N protein than P1 or P2” and the “shift in the intrinsic N-NTD fluorescence spectrum” value is “comparatively larger blue shift”. Also, the “N-NTD denaturation melting temperature” value in [11] is 45 °C. Besides, in [12], the “shift in the fluorescence spectrum of full-length N protein” value is given as ““blue shift” was observed”. Moreover, in [13], the “N protein thermal denaturation” value is reported as “delayed N protein thermal denaturation”. The “maximum dimension (Dmax) of N protein” value in series [14] amounted to 230. Moreover, in series [15], it took 32.1 µM to reach a half-maximal effect (EC50) and the “TI (CC50/EC50)” value was found to be 25.1. In series [16], the EC50 was 35 µM and the “TI (CC50/EC50)” value worked out at 23. Further, the “appearance (clinical score)” value in series [17] (4 h before MHV 10^4 pfu, mice) is listed as “prevent the appearance change caused by MHV”. In addition, in series [17] (MHV infection, day 7), the “liver histology (H&E stain)” value is “rescue the increases of adipocytes and inflammation”.
